Test results published in US11969428B2, “Methods and pharmaceutical compositions for treating lymphoid malignancy” (priority 2011, dated 2024).

Columns and labels:
Experiment in all cases: Ambit KinomeScan screening
Type in all cases: binding
Conditions in all cases: CAL-130 10 μM
SRC = molecular target: T1, SRC (Homo sapiens, UniProt P12931)
T1 construct: tag, kind not specified; purchased Ambit (KinomeScan screening service)
Procedure, shortened: (§1)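 Competition binding, 10 μM CAL-130 vs immobilized bait ligand; tagged kinases; readout % of control binding (lower = tighter); >35% = non-hit.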

TYRO3 = molecular target: T2, TYRO3 (Homo sapiens, UniProt Q06418)
T2 construct: tag, kind not specified; purchased Ambit (KinomeScan screening service)
Procedure, shortened: as §1

PAK1 = molecular target: T3, PAK1 (Homo sapiens, UniProt Q13153)
T3 construct: purchased Ambit (KinomeScan screening service)
Procedure, shortened: as §1

MAST1 = molecular target: T4, MAST1 (Homo sapiens, UniProt Q9Y2H9)
T4 construct: purchased Ambit (KinomeScan screening)
Procedure, shortened: as §1

CDKL3 = molecular target: T5, CDKL3 (Homo sapiens, UniProt Q8IVW4)
T5 construct: purchased Ambit (KinomeScan screening service)
Procedure, shortened: as §1

DLK = molecular target: T6, DLK (Homo sapiens, UniProt Q12852)
T6 construct: unspecified tag ("tagged kinases"); purchased Ambit (KinomeScan screening service)
Procedure, shortened: as §1

ABL1 = molecular target: T7, ABL1 (Homo sapiens, UniProt P00519)
T7 construct: unspecified tag ("tagged kinases"); purchased Ambit (KinomeScan screening)
Procedure, shortened: as §1

ERBB4 = molecular target: T8, ERBB4 (Homo sapiens, UniProt Q15303)
T8 construct: unspecified tag ("tagged kinases"); purchased Ambit (KinomeScan screening service)
Procedure, shortened: as §1

MARK2 = molecular target: T9, MARK2 (Homo sapiens, UniProt Q7KZI7)
T9 construct: Ambit (KinomeScan screening)
Procedure, shortened: as §1

MINK = molecular target: T10, MINK (Homo sapiens, UniProt Q8N4C8)
T10 construct: unspecified tag ('tagged kinases'); purchased Ambit (KinomeScan screening)
Procedure, shortened: as §1

EPHA8 = molecular target: T11, EPHA8 (Homo sapiens, UniProt P29322)
T11 construct: purchased Ambit (KinomeScan screening service)
Procedure, shortened: as §1

ERBB3 = molecular target: T12, ERBB3 (Homo sapiens, UniProt P21860)
T12 construct: unspecified tag ("tagged kinases"); purchased Ambit (KinomeScan screening service)
Procedure, shortened: as §1

KIT(V559D, V654A) = molecular target: T13, KIT(V559D, V654A) (Homo sapiens, UniProt P10721, V559D/V654A)
T13 construct: unspecified tag ('tagged kinases'); purchased Ambit (KinomeScan screening service)
Procedure, shortened: as §1

DMPK = molecular target: T14, DMPK (Homo sapiens, UniProt Q09013)
T14 construct: unspecified tag ("tagged kinases"); purchased Ambit (KinomeScan screening service)
Procedure, shortened: as §1

ERK4 = molecular target: T15, ERK4 (Homo sapiens, UniProt P31152)
T15 construct: unspecified tag ("tagged kinases"); purchased Ambit (KinomeScan screening service)
Procedure, shortened: as §1

CAMK1D = molecular target: T16, CAMK1D (Homo sapiens, UniProt Q8IU85)
T16 construct: unspecified tag ("tagged kinases"); purchased Ambit (KinomeScan screening)
Procedure, shortened: as §1

PIK3CB = molecular target: T17, PIK3CB (Homo sapiens, UniProt P42338)
T17 construct: unspecified tag; purchased Ambit (KinomeScan screening panel)
Procedure, shortened: as §1

CSNK2A2 = molecular target: T18, CSNK2A2 (Homo sapiens, UniProt P19784)
T18 construct: purchased Ambit (KinomeScan screening service)
Procedure, shortened: as §1

TIE1 = molecular target: T19, TIE1 (Homo sapiens, UniProt P35590)
T19 construct: unspecified tag (tagged kinase); purchased Ambit (KinomeScan screening)
Procedure, shortened: as §1

ABL1(T315I) = molecular target: T20, ABL1(T315I) (Homo sapiens, UniProt P00519, T315I)
T20 construct: unspecified tag ("tagged kinases"); purchased Ambit (KinomeScan screening)
Procedure, shortened: as §1

PRKG2 = molecular target: T21, PRKG2 (Homo sapiens, UniProt Q13237)
T21 construct: tag (kind not specified); purchased Ambit (KinomeScan screening service)
Procedure, shortened: as §1

CHEK2 = molecular target: T22, CHEK2 (Homo sapiens, UniProt O96017)
T22 construct: purchased Ambit (KinomeScan screening service)
Procedure, shortened: as §1

MST1 = molecular target: T23, MST1 (Homo sapiens, UniProt Q13043)
T23 construct: unspecified tag ('tagged kinases'); purchased Ambit (KinomeScan screening)
Procedure, shortened: as §1

CHEK1 = molecular target: T24, CHEK1 (Homo sapiens, UniProt O14757)
T24 construct: purchased Ambit (KinomeScan screening service)
Procedure, shortened: as §1

MAK = molecular target: T25, MAK (Homo sapiens, UniProt P20794)
T25 construct: unspecified tag ('tagged kinases'); purchased Ambit (KinomeScan screening service)
Procedure, shortened: as §1

HIPK3 = molecular target: T26, HIPK3 (Homo sapiens, UniProt Q9H422)
T26 construct: Ambit (KinomeScan screening)
Procedure, shortened: as §1

RPS6KA2 = molecular target: T27, RPS6KA2 (Homo sapiens, UniProt Q15349)
T27 construct: unspecified tag (tagged kinase); purchased Ambit (KinomeScan screening)
Procedure, shortened: as §1

TESK1 = molecular target: T28, TESK1 (Homo sapiens, UniProt Q15569)
T28 construct: unspecified tag (tagged kinase); purchased Ambit (KinomeScan screening)
Procedure, shortened: as §1

MUSK = molecular target: T29, MUSK (Homo sapiens, UniProt O15146)
T29 construct: unspecified tag; purchased Ambit (KinomeScan screening panel)
Procedure, shortened: as §1

PKN2 = molecular target: T30, PKN2 (Homo sapiens, UniProt Q16513)
T30 construct: purchased Ambit (KinomeScan screening service)
Procedure, shortened: as §1

EGFR(E746-A750DEL) = molecular target: T31, EGFR(E746-A750DEL) (Homo sapiens, UniProt P00533, DEL746-750)
T31 construct: unspecified tag; purchased Ambit (KinomeScan screening service)
Procedure, shortened: as §1

GAK = molecular target: T32, GAK (Homo sapiens, UniProt O14976)
T32 construct: unspecified tag ('tagged kinases'); purchased Ambit (KinomeScan screening service)
Procedure, shortened: as §1

FYN = molecular target: T33, FYN (Homo sapiens, UniProt P06241)
T33 construct: unspecified tag ('tagged kinases'); purchased Ambit (KinomeScan screening service)
Procedure, shortened: as §1

RET(M918T) = molecular target: T34, RET(M918T) (Homo sapiens, UniProt P07949, M918T)
T34 construct: tag (kind not specified); purchased Ambit (KinomeScan screening service)
Procedure, shortened: as §1

PCTK1 = molecular target: T35, PCTK1 (Homo sapiens, UniProt Q00536)
T35 construct: unspecified tag ('tagged kinases'); purchased Ambit (KinomeScan screening)
Procedure, shortened: as §1

T17 sequence (P42338 whole entry): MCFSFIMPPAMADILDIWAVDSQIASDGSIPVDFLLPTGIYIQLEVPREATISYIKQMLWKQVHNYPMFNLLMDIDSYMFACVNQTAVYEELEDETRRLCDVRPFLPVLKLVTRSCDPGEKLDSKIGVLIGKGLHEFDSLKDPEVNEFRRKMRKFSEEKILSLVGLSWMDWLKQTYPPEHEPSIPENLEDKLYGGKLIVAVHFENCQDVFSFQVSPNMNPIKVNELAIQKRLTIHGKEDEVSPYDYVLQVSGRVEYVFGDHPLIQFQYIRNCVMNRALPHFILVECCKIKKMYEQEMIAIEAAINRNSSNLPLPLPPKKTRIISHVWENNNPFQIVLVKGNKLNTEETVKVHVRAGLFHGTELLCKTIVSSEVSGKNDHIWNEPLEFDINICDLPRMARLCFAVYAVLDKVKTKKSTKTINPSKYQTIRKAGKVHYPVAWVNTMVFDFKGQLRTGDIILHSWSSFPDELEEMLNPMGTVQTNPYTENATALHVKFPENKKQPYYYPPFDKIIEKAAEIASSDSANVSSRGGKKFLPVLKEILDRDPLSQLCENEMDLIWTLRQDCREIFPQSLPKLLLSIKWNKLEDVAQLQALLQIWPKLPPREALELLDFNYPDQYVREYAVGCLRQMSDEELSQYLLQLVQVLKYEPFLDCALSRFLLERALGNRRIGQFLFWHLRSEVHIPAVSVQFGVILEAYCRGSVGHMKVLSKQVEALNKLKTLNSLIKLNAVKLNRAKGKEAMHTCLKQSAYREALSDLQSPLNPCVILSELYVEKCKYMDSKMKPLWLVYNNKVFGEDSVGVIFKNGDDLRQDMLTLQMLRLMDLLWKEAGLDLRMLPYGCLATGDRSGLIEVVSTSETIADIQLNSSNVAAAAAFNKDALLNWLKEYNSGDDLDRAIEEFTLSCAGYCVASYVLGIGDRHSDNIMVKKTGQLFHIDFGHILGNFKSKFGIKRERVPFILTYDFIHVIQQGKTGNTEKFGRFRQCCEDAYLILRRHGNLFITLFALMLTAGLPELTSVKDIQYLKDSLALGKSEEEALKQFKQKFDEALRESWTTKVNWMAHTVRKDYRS
T11 sequence (P29322 28-1005): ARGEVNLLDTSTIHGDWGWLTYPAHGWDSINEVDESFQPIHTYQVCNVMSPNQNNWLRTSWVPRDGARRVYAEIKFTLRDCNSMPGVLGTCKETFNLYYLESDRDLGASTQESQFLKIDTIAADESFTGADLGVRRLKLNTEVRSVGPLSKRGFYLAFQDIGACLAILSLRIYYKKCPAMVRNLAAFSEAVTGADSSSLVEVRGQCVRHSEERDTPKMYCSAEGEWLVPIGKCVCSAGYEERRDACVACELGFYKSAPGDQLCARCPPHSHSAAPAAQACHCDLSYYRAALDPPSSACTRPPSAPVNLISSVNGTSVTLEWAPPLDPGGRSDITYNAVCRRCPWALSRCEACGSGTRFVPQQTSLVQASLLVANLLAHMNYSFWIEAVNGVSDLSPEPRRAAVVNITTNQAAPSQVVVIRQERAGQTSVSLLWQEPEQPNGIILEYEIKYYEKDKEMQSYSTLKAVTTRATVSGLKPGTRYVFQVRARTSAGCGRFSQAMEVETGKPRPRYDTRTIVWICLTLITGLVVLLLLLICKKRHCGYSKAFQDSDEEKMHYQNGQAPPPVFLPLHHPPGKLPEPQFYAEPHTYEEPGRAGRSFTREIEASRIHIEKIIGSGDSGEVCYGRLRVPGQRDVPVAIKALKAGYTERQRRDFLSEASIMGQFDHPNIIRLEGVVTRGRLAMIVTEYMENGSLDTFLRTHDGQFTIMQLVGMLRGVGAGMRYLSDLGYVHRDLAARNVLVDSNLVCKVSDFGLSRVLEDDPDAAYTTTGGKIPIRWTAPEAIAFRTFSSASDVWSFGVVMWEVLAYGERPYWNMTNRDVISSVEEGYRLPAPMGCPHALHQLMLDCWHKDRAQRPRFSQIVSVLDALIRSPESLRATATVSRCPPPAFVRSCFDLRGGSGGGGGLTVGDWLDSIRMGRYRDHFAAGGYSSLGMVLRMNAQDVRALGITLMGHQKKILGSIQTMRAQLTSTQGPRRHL
T16 sequence (Q8IU85 whole entry): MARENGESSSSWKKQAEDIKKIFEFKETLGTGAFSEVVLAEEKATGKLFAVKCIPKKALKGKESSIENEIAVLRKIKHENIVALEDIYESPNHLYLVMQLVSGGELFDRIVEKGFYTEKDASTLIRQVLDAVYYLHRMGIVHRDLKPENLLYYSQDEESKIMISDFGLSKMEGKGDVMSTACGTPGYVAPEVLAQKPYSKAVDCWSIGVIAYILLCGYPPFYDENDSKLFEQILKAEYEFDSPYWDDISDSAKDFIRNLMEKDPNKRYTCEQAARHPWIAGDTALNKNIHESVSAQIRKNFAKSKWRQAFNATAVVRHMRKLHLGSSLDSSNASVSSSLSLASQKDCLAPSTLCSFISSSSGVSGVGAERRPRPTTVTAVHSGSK
T12 sequence (P21860 20-1342): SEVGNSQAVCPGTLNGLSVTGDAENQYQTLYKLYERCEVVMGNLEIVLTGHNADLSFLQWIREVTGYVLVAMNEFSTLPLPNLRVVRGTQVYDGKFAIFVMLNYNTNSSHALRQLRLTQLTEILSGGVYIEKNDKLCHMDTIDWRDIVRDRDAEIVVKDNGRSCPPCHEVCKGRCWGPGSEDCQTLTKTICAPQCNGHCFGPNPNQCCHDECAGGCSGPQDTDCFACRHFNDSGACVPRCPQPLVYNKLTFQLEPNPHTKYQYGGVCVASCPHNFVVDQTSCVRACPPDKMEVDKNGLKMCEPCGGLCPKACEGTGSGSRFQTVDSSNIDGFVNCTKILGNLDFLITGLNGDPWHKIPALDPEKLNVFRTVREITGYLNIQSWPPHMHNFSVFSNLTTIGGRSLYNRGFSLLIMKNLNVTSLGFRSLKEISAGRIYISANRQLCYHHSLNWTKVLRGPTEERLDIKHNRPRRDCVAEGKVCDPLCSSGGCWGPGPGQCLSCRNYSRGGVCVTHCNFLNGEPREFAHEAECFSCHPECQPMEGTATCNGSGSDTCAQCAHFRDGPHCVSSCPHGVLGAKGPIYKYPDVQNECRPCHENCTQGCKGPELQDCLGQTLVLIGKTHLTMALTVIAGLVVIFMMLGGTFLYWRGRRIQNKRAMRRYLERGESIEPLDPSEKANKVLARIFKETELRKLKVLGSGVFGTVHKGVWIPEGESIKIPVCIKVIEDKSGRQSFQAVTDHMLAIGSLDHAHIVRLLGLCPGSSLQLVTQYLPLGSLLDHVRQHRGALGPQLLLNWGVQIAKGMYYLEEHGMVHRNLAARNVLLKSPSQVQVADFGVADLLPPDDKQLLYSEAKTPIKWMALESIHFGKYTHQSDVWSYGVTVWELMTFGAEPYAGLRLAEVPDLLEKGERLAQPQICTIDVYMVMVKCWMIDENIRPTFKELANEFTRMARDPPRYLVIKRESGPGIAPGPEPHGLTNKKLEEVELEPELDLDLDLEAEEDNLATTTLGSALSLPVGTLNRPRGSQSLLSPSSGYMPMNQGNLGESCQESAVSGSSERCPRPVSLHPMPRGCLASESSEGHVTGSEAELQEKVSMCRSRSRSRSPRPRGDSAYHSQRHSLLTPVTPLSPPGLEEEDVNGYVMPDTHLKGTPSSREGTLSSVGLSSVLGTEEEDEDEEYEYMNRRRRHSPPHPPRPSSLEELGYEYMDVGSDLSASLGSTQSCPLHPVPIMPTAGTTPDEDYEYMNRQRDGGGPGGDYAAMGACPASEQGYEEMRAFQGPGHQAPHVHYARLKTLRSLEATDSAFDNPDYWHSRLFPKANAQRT
T34 sequence (P07949 29-1114 M918T): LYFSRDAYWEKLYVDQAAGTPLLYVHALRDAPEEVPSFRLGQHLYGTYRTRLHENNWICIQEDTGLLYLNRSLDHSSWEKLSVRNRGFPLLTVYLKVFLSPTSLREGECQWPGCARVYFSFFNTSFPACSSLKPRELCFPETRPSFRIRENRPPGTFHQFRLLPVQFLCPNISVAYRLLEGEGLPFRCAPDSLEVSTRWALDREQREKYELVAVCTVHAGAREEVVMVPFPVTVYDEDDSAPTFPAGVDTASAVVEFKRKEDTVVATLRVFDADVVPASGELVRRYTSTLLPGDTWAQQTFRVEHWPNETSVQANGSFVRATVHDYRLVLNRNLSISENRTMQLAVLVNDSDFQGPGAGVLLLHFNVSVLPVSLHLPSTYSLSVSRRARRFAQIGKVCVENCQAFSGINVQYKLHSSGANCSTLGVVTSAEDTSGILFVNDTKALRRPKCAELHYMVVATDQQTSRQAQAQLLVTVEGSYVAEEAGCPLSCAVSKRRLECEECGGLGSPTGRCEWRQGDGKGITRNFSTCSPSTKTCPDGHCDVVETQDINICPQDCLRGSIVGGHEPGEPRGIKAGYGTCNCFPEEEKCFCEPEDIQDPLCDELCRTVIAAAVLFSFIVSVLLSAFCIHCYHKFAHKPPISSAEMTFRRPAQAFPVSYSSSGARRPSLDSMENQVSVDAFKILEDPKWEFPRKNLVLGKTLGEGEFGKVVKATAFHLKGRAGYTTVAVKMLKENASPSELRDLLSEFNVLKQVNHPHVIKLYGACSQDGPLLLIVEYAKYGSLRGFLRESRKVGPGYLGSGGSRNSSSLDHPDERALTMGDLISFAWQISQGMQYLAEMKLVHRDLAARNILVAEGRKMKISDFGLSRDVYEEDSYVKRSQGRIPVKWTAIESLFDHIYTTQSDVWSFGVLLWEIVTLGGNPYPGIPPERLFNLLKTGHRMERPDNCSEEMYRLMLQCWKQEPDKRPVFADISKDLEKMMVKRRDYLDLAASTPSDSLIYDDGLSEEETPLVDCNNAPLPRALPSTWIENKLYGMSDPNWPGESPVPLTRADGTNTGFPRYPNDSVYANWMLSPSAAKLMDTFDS

## Cc1ccccc1-n1c(C(C)Nc2nc(N)nc3nc[nH]c23)nc2cccc(C)c2c1=O (stereo not drawn) [CAL-130]
SRC
  Percent of Control Binding: 100%
TYRO3
  Percent of Control Binding: 100%
PAK1
  Percent of Control Binding: 100%
MAST1
  Percent of Control Binding: 100%
CDKL3
  Percent of Control Binding: 100%
DLK
  Percent of Control Binding: 100%
ABL1
  Percent of Control Binding: 100%
ERBB4
  Percent of Control Binding: 100%
MARK2
  Percent of Control Binding: 100%
MINK
  Percent of Control Binding: 100%
EPHA8
  Percent of Control Binding: 100%
ERBB3
  Percent of Control Binding: 100%
KIT(V559D, V654A)
  Percent of Control Binding: 100%
DMPK
  Percent of Control Binding: 100%
ERK4
  Percent of Control Binding: 100%
CAMK1D
  Percent of Control Binding: 100%
PIK3CB; PI3KCB (Table 2)
  Percent of Control Binding: 10%
PIK3CB; PIK3CB (Table 1)
  Percent of Control Binding: 3.2%
CSNK2A2
  Percent of Control Binding: 100%
TIE1
  Percent of Control Binding: 100%
ABL1(T315I)
  Percent of Control Binding: 100%
PRKG2
  Percent of Control Binding: 100%
CHEK2
  Percent of Control Binding: 100%
MST1
  Percent of Control Binding: 100%
CHEK1
  Percent of Control Binding: 100%
MAK
  Percent of Control Binding: 100%
HIPK3
  Percent of Control Binding: 100%
RPS6KA2
  Percent of Control Binding: 100%
TESK1
  Percent of Control Binding: 100%
MUSK
  Percent of Control Binding: 100%
PKN2
  Percent of Control Binding: 100%
EGFR(E746-A750DEL)
  Percent of Control Binding: 100%
GAK
  Percent of Control Binding: 100%
FYN
  Percent of Control Binding: 100%
RET(M918T)
  Percent of Control Binding: 100%
PCTK1
  Percent of Control Binding: 100%
